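Grown in 96-well plates, cells were treated for 48 hours with each compound at five concentrations. Insufficient inhibition: endpoint recorded as highest concentration tested. GI50 is the concentration that inhibits growth by half. Definition used: TGI = concentration required for complete inhibition of growth.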
Key:
Assay in all cases: inhibition of tumour cell growth, NCI panel, 48 h
COLO 205 colon = test system: COLO 205 colon
DU-145 prostate = test system: DU-145 prostate
HCT-116 colon = test system: HCT-116 colon
M14 melanoma = test system: M14 melanoma
MCF7 breast = test system: MCF7 breast
MDA-MB-231 breast = test system: MDA-MB-231 breast
MDA-N = test system: MDA-N
NCI-H23 lung = test system: NCI-H23 lung
OVCAR-5 ovarian = test system: OVCAR-5 ovarian
SK-MEL-28 melanoma = test system: SK-MEL-28 melanoma

## CC(C)(NC1=NCCO1)c1ccccc1
COLO 205 colon
  TGI: > 100 µM
DU-145 prostate
  TGI: > 100 µM
HCT-116 colon
  TGI: > 100 µM
M14 melanoma
  TGI: > 100 µM
MCF7 breast
  TGI: > 100 µM
MDA-MB-231 breast
  TGI: > 100 µM
MDA-N
  TGI: > 100 µM
NCI-H23 lung
  TGI: > 100 µM
OVCAR-5 ovarian
  TGI: > 100 µM
SK-MEL-28 melanoma
  TGI: > 100 µM

## CN(C)CCn1c(=O)c2ccc3c4c(nn3CCN(C)C)c3ccccc3n(c1=O)c24
COLO 205 colon
  TGI: 0.985 µM
DU-145 prostate
  TGI: 3.54 µM
HCT-116 colon
  TGI: 2.22 µM
M14 melanoma
  TGI: 1.18 µM
MCF7 breast
  TGI: 1.05 µM
MDA-MB-231 breast
  TGI: 1.96 µM
MDA-N
  TGI: 0.97 µM
NCI-H23 lung
  TGI: 1.42 µM
OVCAR-5 ovarian
  TGI: 2.89 µM
SK-MEL-28 melanoma
  TGI: 6.46 µM

## CCOc1cc(C2SCC(=O)N2c2nc3cc4sc(N5C(=O)CSC5c5ccc(O)c(OCC)c5)nc4cc3s2)ccc1O (stereo unspecified)
COLO 205 colon
  TGI: > 100 µM
DU-145 prostate
  TGI: > 100 µM
HCT-116 colon
  TGI: > 100 µM
M14 melanoma
  TGI: > 100 µM
MCF7 breast
  TGI: > 86.3 µM
MDA-MB-231 breast
  TGI: > 100 µM
MDA-N
  TGI: > 100 µM
NCI-H23 lung
  TGI: > 100 µM
OVCAR-5 ovarian
  TGI: > 100 µM
SK-MEL-28 melanoma
  TGI: > 100 µM

## CC1(C)[C@@H]2C[C@H]1C(Cc1cccc(C[C@H]3c4cc(-c5ccccn5)ncc4[C@H]4C[C@@H]3C4(C)C)c1)c1cc(-c3ccccn3)ncc12 (stereo partly specified)
COLO 205 colon
  TGI: > 58.6 µM
DU-145 prostate
  TGI: > 100 µM
HCT-116 colon
  TGI: > 100 µM
M14 melanoma
  GI50: 0.858 µM
  TGI: 8.45 µM
MCF7 breast
  TGI: > 100 µM
MDA-MB-231 breast
  TGI: > 100 µM
MDA-N
  TGI: > 100 µM
NCI-H23 lung
  TGI: > 63.9 µM
OVCAR-5 ovarian
  TGI: > 100 µM
SK-MEL-28 melanoma
  TGI: > 100 µM

## CCOC(=O)C(=Cn1c(=S)[nH]c2ccc([N+](=O)[O-])cc21)C(=O)OCC
COLO 205 colon
  TGI: > 100 µM
DU-145 prostate
  TGI: > 100 µM
HCT-116 colon
  TGI: > 100 µM
M14 melanoma
  TGI: > 100 µM
MCF7 breast
  TGI: > 100 µM
MDA-MB-231 breast
  TGI: > 100 µM
MDA-N
  TGI: > 100 µM
NCI-H23 lung
  TGI: > 100 µM
OVCAR-5 ovarian
  TGI: > 100 µM
SK-MEL-28 melanoma
  TGI: > 100 µM

## CCCCCCCCC/C=C1\CC(CO)(COC(=O)c2ccccc2)OC1=O (stereo unspecified)
COLO 205 colon
  TGI: 33 µM
DU-145 prostate
  TGI: > 100 µM
HCT-116 colon
  TGI: 52.8 µM
M14 melanoma
  TGI: 36.6 µM
MCF7 breast
  TGI: 48.9 µM
MDA-MB-231 breast
  TGI: 40.4 µM
MDA-N
  TGI: 43.1 µM
NCI-H23 lung
  TGI: 41.9 µM
OVCAR-5 ovarian
  TGI: 33.2 µM
SK-MEL-28 melanoma
  TGI: 31.8 µM

## C[C@H](CCC1=NCCN1)[C@H]1CC[C@H]2[C@@H]3CC[C@@H]4C[C@H](O)CC[C@]4(C)[C@H]3C[C@H](O)[C@]12C
COLO 205 colon
  TGI: 23.8 µM
DU-145 prostate
  TGI: 28.9 µM
HCT-116 colon
  TGI: > 100 µM
M14 melanoma
  TGI: 35.6 µM
MCF7 breast
  TGI: 28.5 µM
MDA-MB-231 breast
  TGI: 34 µM
MDA-N
  TGI: 31 µM
NCI-H23 lung
  TGI: 27 µM
OVCAR-5 ovarian
  TGI: 28.1 µM
SK-MEL-28 melanoma
  TGI: 34.6 µM

## CCOC(=O)C(C)c1nc2cc(N3CCN(C)CC3)c(F)cc2[nH]c1=O (stereo unspecified)
COLO 205 colon
  TGI: > 100 µM
DU-145 prostate
  TGI: > 100 µM
HCT-116 colon
  TGI: > 100 µM
M14 melanoma
  TGI: > 100 µM
MCF7 breast
  TGI: > 100 µM
MDA-MB-231 breast
  TGI: > 100 µM
MDA-N
  TGI: > 100 µM
NCI-H23 lung
  TGI: > 100 µM
OVCAR-5 ovarian
  TGI: > 100 µM
SK-MEL-28 melanoma
  TGI: > 100 µM

## NC(=O)NCCCC(NC(=O)OCCCCCn1ccc(=O)[nH]c1=O)C(=O)O (stereo unspecified)
COLO 205 colon
  TGI: > 100 µM
DU-145 prostate
  TGI: > 100 µM
HCT-116 colon
  TGI: > 100 µM
M14 melanoma
  TGI: > 100 µM
MCF7 breast
  TGI: > 100 µM
MDA-MB-231 breast
  TGI: > 100 µM
MDA-N
  TGI: > 100 µM
NCI-H23 lung
  TGI: > 100 µM
OVCAR-5 ovarian
  TGI: > 100 µM
SK-MEL-28 melanoma
  TGI: > 100 µM

## COc1ccc(C2(C3c4cc(OC)c(OC)cc4CCN3C)SCCCS2)cc1O (stereo unspecified)
COLO 205 colon
  TGI: > 100 µM
DU-145 prostate
  TGI: > 100 µM
HCT-116 colon
  TGI: > 100 µM
M14 melanoma
  TGI: > 100 µM
MCF7 breast
  TGI: > 100 µM
MDA-MB-231 breast
  TGI: > 100 µM
MDA-N
  TGI: > 100 µM
NCI-H23 lung
  TGI: > 100 µM
OVCAR-5 ovarian
  TGI: > 100 µM
SK-MEL-28 melanoma
  TGI: > 100 µM

## O=C(OCc1ccccc1)N1c2cc([N+](=O)[O-])ccc2C(=O)N2CCC[C@H]2C1O (stereo partly specified)
COLO 205 colon
  TGI: > 100 µM
DU-145 prostate
  TGI: > 100 µM
HCT-116 colon
  TGI: > 100 µM
M14 melanoma
  TGI: > 100 µM
MCF7 breast
  TGI: > 100 µM
MDA-MB-231 breast
  TGI: > 100 µM
MDA-N
  TGI: > 100 µM
NCI-H23 lung
  TGI: > 100 µM
OVCAR-5 ovarian
  TGI: > 100 µM
SK-MEL-28 melanoma
  TGI: > 100 µM

## CS(=O)(=O)O.[Ag]
COLO 205 colon
  TGI: 4.84 µM
DU-145 prostate
  TGI: 34.2 µM
HCT-116 colon
  TGI: 20 µM
M14 melanoma
  TGI: 9.44 µM
MCF7 breast
  TGI: 24.8 µM
MDA-MB-231 breast
  TGI: 41 µM
MDA-N
  TGI: 19.9 µM
NCI-H23 lung
  TGI: 46.2 µM
OVCAR-5 ovarian
  TGI: 35 µM
SK-MEL-28 melanoma
  TGI: 35.2 µM

## O=C(O)C1SCCS1
COLO 205 colon
  TGI: > 100 µM
DU-145 prostate
  TGI: > 100 µM
HCT-116 colon
  TGI: > 100 µM
M14 melanoma
  TGI: > 100 µM
MCF7 breast
  TGI: > 100 µM
MDA-MB-231 breast
  TGI: > 100 µM
MDA-N
  TGI: > 100 µM
NCI-H23 lung
  TGI: > 100 µM
OVCAR-5 ovarian
  TGI: > 100 µM
SK-MEL-28 melanoma
  TGI: > 100 µM

## CC(=N\N=C\c1ccccn1)/C(C)=N/N=C(C)/C(C)=N/N=C(C)/C(C)=N/N=C/c1ccccn1
COLO 205 colon
  TGI: > 100 µM
DU-145 prostate
  TGI: > 100 µM
HCT-116 colon
  TGI: > 100 µM
M14 melanoma
  TGI: > 100 µM
MCF7 breast
  TGI: > 100 µM
MDA-MB-231 breast
  TGI: > 100 µM
MDA-N
  TGI: > 100 µM
NCI-H23 lung
  TGI: > 100 µM
OVCAR-5 ovarian
  TGI: > 100 µM
SK-MEL-28 melanoma
  TGI: > 100 µM

## N#Cc1nc(/C=C/c2ccccc2)oc1N
COLO 205 colon
  TGI: > 100 µM
DU-145 prostate
  TGI: > 100 µM
HCT-116 colon
  TGI: > 100 µM
M14 melanoma
  TGI: > 100 µM
MCF7 breast
  TGI: > 100 µM
MDA-MB-231 breast
  TGI: > 100 µM
MDA-N
  TGI: > 100 µM
NCI-H23 lung
  TGI: > 100 µM
OVCAR-5 ovarian
  TGI: > 100 µM
SK-MEL-28 melanoma
  TGI: > 100 µM

## C/C=C\C(CC(=O)NCCC1CN(C(=O)c2ccccc2)c2ccccc21)CC(=O)OC (stereo unspecified)
COLO 205 colon
  TGI: > 100 µM
DU-145 prostate
  TGI: > 100 µM
HCT-116 colon
  TGI: > 100 µM
M14 melanoma
  TGI: > 100 µM
MCF7 breast
  TGI: > 100 µM
MDA-MB-231 breast
  TGI: > 100 µM
MDA-N
  TGI: > 100 µM
NCI-H23 lung
  TGI: > 100 µM
OVCAR-5 ovarian
  TGI: > 100 µM
SK-MEL-28 melanoma
  TGI: > 100 µM

## OCCO[P+]1(OCCO)n2c3ccc2C(c2ccccc2)=C2C=CC(=N2)C(c2ccccc2)=c2ccc(n21)=C(c1ccccc1)C1=NC(=C3c2ccccc2)C=C1
COLO 205 colon
  TGI: 0.0651 µM
DU-145 prostate
  TGI: 1.74 µM
HCT-116 colon
  TGI: 0.203 µM
M14 melanoma
  TGI: 0.278 µM
MCF7 breast
  TGI: > 100 µM
MDA-MB-231 breast
  TGI: 0.275 µM
MDA-N
  TGI: 0.092 µM
NCI-H23 lung
  TGI: 0.327 µM
OVCAR-5 ovarian
  TGI: 1.28 µM
SK-MEL-28 melanoma
  TGI: 0.466 µM

## CCC(C)C1(O)OC2CC3(C)OC(=CC3=O)/C(C)=C\C3OC(=O)C1(C)C32 (stereo unspecified)
COLO 205 colon
  TGI: 21 µM
DU-145 prostate
  TGI: 17 µM
HCT-116 colon
  TGI: 47.2 µM
M14 melanoma
  TGI: > 100 µM
MCF7 breast
  TGI: 28.4 µM
MDA-MB-231 breast
  TGI: 41.2 µM
MDA-N
  TGI: 21 µM
NCI-H23 lung
  TGI: 24.7 µM
OVCAR-5 ovarian
  TGI: > 100 µM
SK-MEL-28 melanoma
  TGI: > 100 µM

## CCS(=O)(=O)c1c2cc(OC)ccc2nc2ccc(OC)cc12
COLO 205 colon
  TGI: > 100 µM
DU-145 prostate
  TGI: > 100 µM
HCT-116 colon
  TGI: > 100 µM
M14 melanoma
  TGI: > 100 µM
MCF7 breast
  TGI: > 100 µM
MDA-MB-231 breast
  TGI: > 100 µM
MDA-N
  TGI: > 100 µM
NCI-H23 lung
  TGI: > 100 µM
OVCAR-5 ovarian
  TGI: > 100 µM
SK-MEL-28 melanoma
  TGI: > 100 µM

## O=C1C(N=Nc2ccc(-c3nc4ccccc4[nH]3)cc2)NC(=S)N1c1ccccc1 (stereo unspecified)
COLO 205 colon
  TGI: > 100 µM
DU-145 prostate
  TGI: > 100 µM
HCT-116 colon
  TGI: > 100 µM
M14 melanoma
  TGI: > 100 µM
MCF7 breast
  TGI: 24.8 µM
MDA-MB-231 breast
  TGI: > 100 µM
MDA-N
  TGI: > 100 µM
NCI-H23 lung
  TGI: > 100 µM
OVCAR-5 ovarian
  TGI: > 100 µM
SK-MEL-28 melanoma
  TGI: > 100 µM

## CC(=O)NC1=C(C)C(=O)c2c(nc3n2CC[C@H]3OC(C)=O)C1=O
COLO 205 colon
  TGI: 3.36 µM
DU-145 prostate
  TGI: 29.4 µM
HCT-116 colon
  TGI: 3.14 µM
M14 melanoma
  TGI: 4.01 µM
MCF7 breast
  TGI: 3.37 µM
MDA-MB-231 breast
  TGI: 2.71 µM
MDA-N
  TGI: 1.69 µM
NCI-H23 lung
  TGI: 8.41 µM
OVCAR-5 ovarian
  TGI: 7.34 µM
SK-MEL-28 melanoma
  TGI: 5.16 µM

Reference: PubChem BioAssay (NCI)
